Experimental data taken from patent publication US20230034660A1, “PEPTIDES THAT ENHANCE NMDA RECEPTOR FUNCTION AND USE THEREOF” (University of Pittsburgh - Of the Commonwealth System of …, priority 2019, published 2023).

Tested on: AMPAR
Experiment: AMPAR EPSCs in DCN cartwheel cells in brain slices, ZX1 potentiation
Type: cell-based, mice
Conditions: slices treated with peptide 3 μM; ZX1 100 μM; −70 mV
Description: Male and female mice (postpartum days 18-28) were anesthetized with isoflurane and sacrificed. Brains were rapidly dissected and sectioned into 210 μm thick coronal slices containing dorsal cochlear nucleus (DCN) on a vibratome (Leica, VT1000S). Slices were incubated in ACSF containing 130 mM NaCl, 3 mM KCl, 2.4 mM CaCl2, 1.3 mM MgCl2, 20 mM NaHCO3, 3 mM HEPES, and 10 mM glucose, saturated with 95% O2/5% CO2 (vol/vol), pH ˜7.3, ˜300 mOsm at 35° C. for 1 hour before being moved to room temperature. During preparation, ACSF was treated with Chelex 100 resin to remove any contaminating zinc. After applying Chelex to the ACSF, high-purity calcium and magnesium salts were added (99.995% purity). All plastic and glassware were washed with 5% high-purity nitric acid.
For brain slice recordings, whole-cell recordings of NMDAR EPSCs in slice DCN cartwheel cells were obtained with micropipettes (3-6 MΩ) containing 128 mM Cs(CH3O3S), 4 mM MgCl2·6H2O, 4 mM Na2ATP, 10 mM HEPES, 0.3 mM Tris-GTP, 10 mM Tris-phosphocreatine, 1 mM CsEGTA, 1 mM, QX-314, 3 mM sodium ascorbate, pH=˜7.2, 300 mOsm. […] NMDAR EPSCs were recorded in voltage clamp mode, at a holding potential of +40 mV, in the presence of DNQX (20 μM, AMPA and kainate receptor antagonist), SR95531. […] AMPA EPSCs were recorded in voltage clamp mode at a holding potential of −70 mV in the presence of SR9551. […]

Sequence | ZX1 potentiation of AMPAR EPSCs
NDSYLRSSL [Peptide N2AZ] | 29.3±6.70%
SNLSDSYDR [scN2AZ, reference compound] | 30.3±10.24%
